Experimental data as given in patent publication US20230085307A1, “PYRIDAZINONE COMPOUND AND HERBICIDE” (NISSAN CHEMICAL CORPORATION, priority 2019, published 2023).

How the values were obtained:
barnyard grass [1] = assay: Test Example 3: herbicidal effect by foliage application, Wagner pot (Table 18, symbol H); type: in vivo, barnyard grass (Echinochloa crus-galli)
Procedure, shortened: (§1)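 Plants were sown in alluvial soil held under 0.1–0.5 cm standing water and grown 14 days in a greenhouse at 25–30 °C. An emulsifiable formulation, water-diluted to the set dose, was then sprayed onto the foliage, and effects were scored three weeks later using previously defined criteria.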

Chinese sprangletop = assay: Test Example 3: herbicidal effect by foliage application, Wagner pot (Table 18, symbol D); type: in vivo, chinese sprangletop (Leptochloa chinensis)
Procedure, shortened: as §1

rice flat sedge = assay: Test Example 3: herbicidal effect by foliage application, Wagner pot (Table 18, symbol E); type: in vivo, rice flat sedge (Cyperus iria)
Procedure, shortened: as §1

southern crabgrass = assay: Test Example 4: herbicidal effect by soil treatment (Table 19, symbol F); type: in vivo, southern crabgrass (Digitaria ciliaris)
Procedure, shortened: (§2)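 Emulsion of test compound, water-diluted to predetermined amount, sprayed on soil after sowing (seed depth ~1.5 cm, sterilized diluvial soil). Greenhouse, 25–30° C. Effect graded at three weeks post-spray.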

green foxtail = assay: Test Example 4: herbicidal effect by soil treatment (Table 19, symbol G); type: in vivo, green foxtail (Setaria viridis)
Procedure, shortened: as §2

barnyard grass [2] = assay: Test Example 4: herbicidal effect by soil treatment (Table 19, symbol H); type: in vivo, barnyard grass (Echinochloa crus-galli)
Procedure, shortened: as §2

wild oat = assay: Test Example 4: herbicidal effect by soil treatment (Table 19, symbol I); type: in vivo, wild oat (Avena fatua)
Procedure, shortened: as §2

blackgrass = assay: Test Example 4: herbicidal effect by soil treatment (Table 19, symbol J); type: in vivo, blackgrass (Alopecurus myosuroides)
Procedure, shortened: as §2

Italian ryegrass = assay: Test Example 4: herbicidal effect by soil treatment (Table 19, symbol K); type: in vivo, Italian ryegrass (Lolium multiflorum)
Procedure, shortened: as §2

windgrass = assay: Test Example 4: herbicidal effect by soil treatment (Table 19, symbol L); type: in vivo, windgrass (Apera spica-venti)
Procedure, shortened: as §2

velvetleaf = assay: Test Example 4: herbicidal effect by soil treatment (Table 19, symbol M); type: in vivo, velvetleaf (Abutilon theophrasti)
Procedure, shortened: as §2

redroot pigweed = assay: Test Example 4: herbicidal effect by soil treatment (Table 19, symbol N); type: in vivo, redroot pigweed (Amaranthus retroflexus)
Procedure, shortened: as §2

lambsquarters = assay: Test Example 4: herbicidal effect by soil treatment (Table 19, symbol O); type: in vivo, lambsquarters (Chenopodium album)
Procedure, shortened: as §2

chickweed = assay: Test Example 4: herbicidal effect by soil treatment (Table 19, symbol P); type: in vivo, common chickweed (Stellaria media)
Procedure, shortened: as §2

persian speedwell = assay: Test Example 4: herbicidal effect by soil treatment (Table 19, symbol R); type: in vivo, Persian speedwell (Veronica persica)
Procedure, shortened: as §2

[3] = amount of applied herbicide 84 g/ha
[4] = amount of applied herbicide 320 g/ha

SMILES | herbicidal effect on H: barnyard grass (barnyard grass [1]; [4]) | herbicidal effect on D: Chinese sprangletop (Chinese sprangletop; [4]) | herbicidal effect on E: rice flat sedge (rice flat sedge; [4]) | herbicidal effect, F: southern crabgrass (southern crabgrass; [4]) | herbicidal effect, G: green foxtail (green foxtail; [4]) | herbicidal effect, H: barnyard grass (barnyard grass [2]; [4]) | herbicidal effect, I: wild oat (wild oat; [4]) | herbicidal effect, J: blackgrass (blackgrass; [4]) | herbicidal effect, K: Italian ryegrass (Italian ryegrass; [4]) | herbicidal effect, L: windgrass (windgrass; [4]) | herbicidal effect, M: velvetleaf (velvetleaf; [4]) | herbicidal effect, N: redroot pigweed (redroot pigweed; [4]) | herbicidal effect, O: lambsquarters (lambsquarters; [4]) | herbicidal effect, P: chickweed (chickweed; [4]) | herbicidal effect, R: persian speedwell (persian speedwell; [4]) | other results
Cc1nn(C)c(=O)c(-c2c(-c3c(F)cc(F)cc3F)sc3ccc(F)cc23)c1O [2-372] |  |  |  |  |  |  |  |  |  |  |  |  |  |  |  | herbicidal effect on H: barnyard grass (barnyard grass [1]; [3]): 4 (Herbicidal rate of 70% or more and less than 90%); herbicidal effect on D: Chinese sprangletop (Chinese sprangletop; [3]): 4 (Herbicidal rate of 70% or more and less than 90%); herbicidal effect on E: rice flat sedge (rice flat sedge; [3]): 3 (Herbicidal rate of 40% or more and less than 70%); herbicidal effect, F: southern crabgrass (southern crabgrass; [3]): 0 (Herbicidal rate of 5% or less (almost no effect)); herbicidal effect, G: green foxtail (green foxtail; [3]): 0 (Herbicidal rate of 5% or less (almost no effect)); herbicidal effect, H: barnyard grass (barnyard grass [2]; [3]): 0 (Herbicidal rate of 5% or less (almost no effect)); herbicidal effect, I: wild oat (wild oat; [3]): 0 (Herbicidal rate of 5% or less (almost no effect)); herbicidal effect, J: blackgrass (blackgrass; [3]): 0 (Herbicidal rate of 5% or less (almost no effect)); herbicidal effect, K: Italian ryegrass (Italian ryegrass; [3]): 2 (Herbicidal rate of 20% or more and less than 40%); herbicidal effect, L: windgrass (windgrass; [3]): 0 (Herbicidal rate of 5% or less (almost no effect)); herbicidal effect, M: velvetleaf (velvetleaf; [3]): 0 (Herbicidal rate of 5% or less (almost no effect)); herbicidal effect, N: redroot pigweed (redroot pigweed; [3]): 0 (Herbicidal rate of 5% or less (almost no effect)); herbicidal effect, O: lambsquarters (lambsquarters; [3]): 0 (Herbicidal rate of 5% or less (almost no effect)); herbicidal effect, P: chickweed (chickweed; [3]): 0 (Herbicidal rate of 5% or less (almost no effect)); herbicidal effect, R: persian speedwell (persian speedwell; [3]): 0 (Herbicidal rate of 5% or less (almost no effect))
Cc1nn(C)c(=O)c(-c2c(-c3cnccc3Cl)sc3ccc(F)cc23)c1O [2-385] | 5 (Herbicidal rate of 90% or more (almost completely withered)) | 5 (Herbicidal rate of 90% or more (almost completely withered)) | 5 (Herbicidal rate of 90% or more (almost completely withered)) | 0 (Herbicidal rate of 5% or less (almost no effect)) | 0 (Herbicidal rate of 5% or less (almost no effect)) | 0 (Herbicidal rate of 5% or less (almost no effect)) | 3 (Herbicidal rate of 40% or more and less than 70%) | 0 (Herbicidal rate of 5% or less (almost no effect)) | 4 (Herbicidal rate of 70% or more and less than 90%) | 1 (Herbicidal rate of 5% or more and less than 20%) | 2 (Herbicidal rate of 20% or more and less than 40%) | 3 (Herbicidal rate of 40% or more and less than 70%) | 4 (Herbicidal rate of 70% or more and less than 90%) | 3 (Herbicidal rate of 40% or more and less than 70%) | 5 (Herbicidal rate of 90% or more (almost completely withered)) | 
CCCC(=O)Oc1c(C)nn(C)c(=O)c1-c1c(-c2cnccc2F)sc2ccc(F)cc12 [2-384] | 3 (Herbicidal rate of 40% or more and less than 70%) | 3 (Herbicidal rate of 40% or more and less than 70%) | 3 (Herbicidal rate of 40% or more and less than 70%) | 3 (Herbicidal rate of 40% or more and less than 70%) | 4 (Herbicidal rate of 70% or more and less than 90%) | 3 (Herbicidal rate of 40% or more and less than 70%) | 1 (Herbicidal rate of 5% or more and less than 20%) | 0 (Herbicidal rate of 5% or less (almost no effect)) | 4 (Herbicidal rate of 70% or more and less than 90%) | 0 (Herbicidal rate of 5% or less (almost no effect)) | 2 (Herbicidal rate of 20% or more and less than 40%) | 4 (Herbicidal rate of 70% or more and less than 90%) | 3 (Herbicidal rate of 40% or more and less than 70%) | 4 (Herbicidal rate of 70% or more and less than 90%) | 4 (Herbicidal rate of 70% or more and less than 90%) | 
